Patent publication US20180214430A1, “Selective Inhibitors Of i-NOS For Use Against Viral Infection” (priority 2015, published 2018)
Entries after “also recorded” stand apart in the source; their conditions may differ. Where two headings read alike, the source gives them in different places. Marks after values point to notes of the source that are not given here.

Key:
RSV [1] = assay: RSV replication in A549 epithelial cell cultures (number of infected cells, immunofluorescence); assay type: cell-based, respiratory syncytial virus (A2) Long strain; settings: for IC50: read-out: IC50 on RSV replication (concentration needed to give a 50% reduction in number of infected cells/well)
total lung NOS activity = assay: Mouse infection model: nitrite concentration of lung homogenate; assay type: in vivo, balb/c mice; settings: 10 mg/kg i.p. every 12 h
[2] = tested on: NO production by RSV infected A549 epithelial cells; assay: Nitric oxide released into cell culture supernatant of RSV infected cells (chemiluminescence); assay type: cell-based, human; settings: for NO production by these cells: epithelial cells, qualitative statement
influenza virus = assay: microbe, parasite or virus in culture; assay type: cell-based, Human influenza virus A/Puerto Rico/8/34 (H1N1)
A549 cells = assay: Cytotoxicity assay (LDH in cell culture supernatant); assay type: cell-based, human; settings: uninfected and RSV infected A549 cells, concentration series
Experimental: To determine the level of cell damage following infection, 50 μl of the culture supernatant from each well were transferred to the corresponding well in 96 well microtitre plate. The LDH activity of the supernatant was measured by a LDH Assay kit, according to the manufacturer's instructions (Sigma, UK). 100 μl of LDH Assay solution was added to each well and the plate was incubated for 30 min at room temperature. After incubation, the absorbance was measured at two wavelengths, 490 nm (measurement) and 690 nm (reference), using a microplate reader (BioRad Laboratories, Hercules, Calif., USA). The percent LDH release was calculated by measuring the LDH content of lysed cells that remained attached to the plate.
To determine whether the concentration series of 1400 W we used was toxic to the A549 cells, and to eliminate the possibility that the reduction in viral antigen was due to toxicity, the concentration of lactate dehydrogenase (LDH) in the cell culture supernatant was measured. LDH is an enzyme that is only released by cells when the cell membrane integrity is reduced. Therefore the concentration of LDH in the cell culture supernatant is directly correlated to cell death.

RSV [3] = assay: Mouse infection model: viral load of the lungs (plaque assay); assay type: in vivo, balb/c mice; settings: 10 mg/kg i.p. every 12 h
[4] = tested on: respiratory syncytial virus; settings: mouse model of respiratory syncytial virus; cited from earlier work
[5] = epithelial cells, qualitative statement
[6] = RSV infected mice, day 3, 10 mg/kg
[7] = RSV infected mice, day 3, listed as 1400 W, 10 mg/kg
[8] = A549 cells, RPMI (1.15 mM L-Arg), after 24 h, ± 95% CI

## CC(=O)N[C@H](C(=O)O)C(C)(C)SN=O (racemic) [SNAP, S-nitroso-N-acetylpenicillamine]
RSV [1]; [5]
  viral (RSV) replication: did not affect

## CC(=N)NCc1cccc(CN)c1 [1400W]
Total lung NOS activity; Mock infected mice, day 3
  Nitrite lung homogenate: 26.0 (5.4) uM
Total lung NOS activity; Mock infected mice, day 5
  Nitrite lung homogenate: 21.6 (3.0) uM
Total lung NOS activity; [6]
  Nitrite lung homogenate: 16.7 (1.9)* uM
Total lung NOS activity; [7]
  Nitrite lung homogenate: significantly reduced
Total lung NOS activity; RSV infected mice, day 5
  Nitrite lung homogenate: 23.7 (3.3) uM
RSV [1]; A549 cells, 24 hrs, concentrations above 1 mM
  number of RSV-infected cells: significantly decreased
RSV [1]; [8]
  IC50: 1100 ± 500 µM
RSV [1]; [5]
  viral (RSV) replication: strongly inhibited
[2]; RSV infected A549 cells, concentrations above 1 mM
  amount of NO released into the cell culture supernatant: significant decrease
[2]
  NO production by these cells: reduction
Influenza virus; A549 cells, DMEM (0.35 mM L-Arg), after 24 h, ± 95% CI, read-out: IC50 on influenza virus replication (concentration needed to give a 50% reduction in number of infected cells/well)
  IC50: 3700 ± 1000 µM
Influenza virus; A549 cells, RPMI (1.15 mM L-Arg), after 24 h, ± 95% CI, read-out: IC50 on influenza virus replication (concentration needed to give a 50% reduction in number of infected cells/well)
  IC50: 4600 ± 900 µM
A549 cells
  toxicity: amount of LDH in the cell culture supernatant: not affected; also recorded: not toxic
RSV [3]; Mock infected mice, day 3
  Log10 pfu per gram lung: <0.18 Log10 pfu per gram lung
RSV [3]; Mock infected mice, day 5
  Log10 pfu per gram lung: <0.18 Log10 pfu per gram lung
RSV [3]; [6]
  Log10 pfu per gram lung: 0.51 ± 0.17 Log10 pfu per gram lung
RSV [3]; [7]
  Log10 pfu per gram lung: significantly lower
RSV [3]; RSV infected mice, day 5
  Log10 pfu per gram lung: 1.18 ± 0.92 Log10 pfu per gram lung

## CC1CCN=C(N)S1 (stereo not drawn) [AMT, 2-amino-5,6-dihydro-6-methyl-4H-1,3-thiazine]
[4]
  viral titres: increase

## COc1ccnc(CCc2nc3ncccc3[nH]2)c1 [BYK191023]
RSV [1]; [5]
  viral (RSV) replication: strongly inhibited
RSV [1]; human respiratory syncytial virus, A549 cells, RPMI (1.15 mM L-Arg), after 24 h, ± 95% CI
  IC50: 1100 ± 500 µM
[2]
  NO production by these cells: reduction
Influenza virus; unidentified influenza virus, A549, 24 h, read-out: IC50 on influenza virus replication (concentration needed to give a 50% reduction in number of infected cells/well), A549 cells, DMEM (0.35 mM L-Arg), after 24 h, ± 95% CI
  IC50: 4800 ± 400 µM
Influenza virus; unidentified influenza virus, A549, 24 h, read-out: IC50 on influenza virus replication (concentration needed to give a 50% reduction in number of infected cells/well), A549 cells, RPMI (1.15 mM L-Arg), after 24 h, ± 95% CI
  IC50: 4300 ± 800 µM

## COC(=O)[C@@H](N)CCCNC(=N)N[N+](=O)[O-] [L-NAME]
RSV [1]; [8]
  IC50 on RSV replication (concentration needed to give a 50% reduction in number of infected cells/well): No effect
RSV [1]; [5]
  viral (RSV) replication: did not inhibit; also recorded: not to inhibit
Influenza virus; [8]
  IC50 on influenza virus replication (concentration needed to give a 50% reduction in number of infected cells/well): No effect

## N=C(N)NCCC[C@H](N)C(=O)O [L-arginine]
RSV [1]; [8]
  IC50 on RSV replication (concentration needed to give a 50% reduction in number of infected cells/well): No inhibitory

## Cl.N=c1c[n+](N2CCOCC2)[n-]o1 [SIN-1, 3-morpholinosydnonimine hydrochloride]
RSV [1]; [5]
  viral (RSV) replication: did not affect

## NCCCNCCCCN(CCCN)/[N+]([O-])=N/O [Spermine (NONOate)]
RSV [1]
  viral (RSV) replication: inhibit
  IC50: 1500 ± 500 µM
Influenza virus; read-out: IC50 on influenza virus replication (concentration needed to give a 50% reduction in number of infected cells/well)
  IC50: 600 ± 400 µM
